From patent publication US20230126375A1, “ENGINEERED BACTERIA AND METHODS OF PRODUCING SUSTAINABLE BIOMOLECULES” (PRESIDENT AND FELLOWS OF HARVARD COLLEGE, priority 2020, published 2023)
Entries after “also recorded” stand apart in the source; their conditions may differ.

Tested on: β-oxidation
Assay: PHA co-polymer composition of lithotrophic C. necator strains with acrylic acid (GCMS of 3-hydroxy acid methyl esters)
Type: cell-based
Description: PHA extraction and analysis: After 48 hr of growth in the second media exchange, 100 ml lithotrophic PHA-producing C. necator cultures were induced with 0.3% arabinose where indicated along with 240 ug/mL acrylic acid where indicated and grown for 5 days at 30° C. Cultures were harvest, pelleted, and lyophilized overnight. Freeze dried pellets were weighed for dry cell weight. PHA was purified with 0.2 ml/mg DCW of 13% NaClO^− for 4 hr at 30° C., washed twice with dH2O, washed once with acetone, then dried at 25° C. overnight. 1:1 methanol and HCl in dioxane to a final volume of 3 ml (1% pentadecanoate as internal standard), the tubes were sealed with crimp top and incubated in oil bath at 90° C. for 20 hr. Tubes were placed on ice, once cooled, 2 ml of chloroform was added and vigorously vortexed, 3 ml of dH2O was added followed by extensive vortexing, the organic phase was separated by centrifugation (10 min, 4,000×g), organic phase removed and stored at −20° C. until GCMS analysis.
GCMS analysis: PHA samples were analyzed by GC-MS 5975/7890 (Agilent Technologies™) on a DB-35 ms column. Samples were heated on a gradient from 40 to 250° C. at 5° C./min. The co-polymer composition was determined with the mass spectra of the 3-hydroxy alkanoic acid methyl esters at m/z=103 and NIST Mass Spectral Library™.

SMILES: C=CC(=O)O [acrylic acid]
- effect on PHA composition (PAS826 (wildtype phaC) and PAS827 (ΔphaC), 240 μg/mL acrylic acid with induction): no effect; also recorded: not strongly affected
- proportion of 3HO and 3HD (PAS828, 240 μg/mL acrylic acid): decreased to undetectable levels
- contribution to PHA composition (PAS828 / PAS829 (UcFatB2, phaC1Pa), 240 μg/mL acrylic acid): did not contribute significantly
- copolymer composition compared to no-acrylic acid condition (PAS829, 240 μg/mL acrylic acid): slightly enriched for longer-chain fatty acids
- mcl-3HA proportion of PHA (PAS830 (native phaC, chim4, phaC1Ps), with acrylic acid, mean): 72.6%
- 3HO proportion of PHA (PAS830, with acrylic acid, mean): 54.6%
- enrichment of mcl-3HAs (PAS831, after the addition of acrylic acid): minor enrichment
- 3HD proportion of PHA (PAS831, with acrylic acid, n=2): 7.1%
- 3HDD proportion of PHA (PAS831, with acrylic acid, n=2): 2.6%
- 3HO proportion of PHA (PAS831, with acrylic acid, n=2): 61.4%
- 3HTD proportion of PHA (PAS831, with acrylic acid, n=2): 1.2%
- mcl-3HA proportion of PHA (PAS832 (native phaC, UcFatB2, phaC2Pa), with acrylic acid, n=3): 59.4%
- 3HDD proportion of PHA (PAS832, with acrylic acid, n=3): 36.3%
- 3HDD proportion of PHA (PAS833 (ΔphaC, UcFatB2, phaC2Pa), with acrylic acid): 60.3%
